Values quoted from earlier work in article PMC8513935.

Key:
[1] = log P octanol/water from commercial databases, averaged (the ESI); conditions: Octanol (wet), 25 C
[2] = experimental, compiled by the authors from the literature (the ESI cites the sources)
[3] = derived by the authors as gas->solvent minus gas->water (a hypothetical dry solvent; the ESI), not a two-phase measurement

## CCc1ccc(O)cc1
[1]
  log K of transfer, water to solvent: 2.58 log10 K
[2]; 1,2-Dichloroethane, 25 C
  log K of transfer, gas to solvent: 6.17 log10 K
[2]; CCl4, 25 C
  log K of transfer, gas to solvent: 5.36 log10 K
[2]; Chlorobenzene, 25 C
  log K of transfer, gas to solvent: 5.8 log10 K
[2]; Chloroform, 25 C
  log K of transfer, gas to solvent: 5.97 log10 K
[2]; Dichloromethane, 25 C
  log K of transfer, gas to solvent: 6.16 log10 K
[2]; Hexadecane, 25 C
  log K of transfer, gas to solvent: 4.73 log10 K
[2]; Hexane, 25 C
  log K of transfer, gas to solvent: 4.79 log10 K
[2]; Perfluoroalkane, 25 C
  log K of transfer, gas to solvent: 3.17 log10 K
[2]; Water, 25 C
  log K of transfer, gas to solvent: 4.5 log10 K
[3]; 1,2-Dichloroethane, 25 C
  log K of transfer, water to solvent: 1.67 log10 K
[3]; CCl4, 25 C
  log K of transfer, water to solvent: 0.86 log10 K
[3]; Chlorobenzene, 25 C
  log K of transfer, water to solvent: 1.3 log10 K
[3]; Chloroform, 25 C
  log K of transfer, water to solvent: 1.47 log10 K
[3]; Dichloromethane, 25 C
  log K of transfer, water to solvent: 1.66 log10 K
[3]; Hexadecane, 25 C
  log K of transfer, water to solvent: 0.237 log10 K
[3]; Hexane, 25 C
  log K of transfer, water to solvent: 0.29 log10 K
[3]; Perfluoroalkane, 25 C
  log K of transfer, water to solvent: -1.33 log10 K

## CCCCCCCC
[1]
  log K of transfer, water to solvent: 5.15 log10 K
[2]; 1,2-Dichloroethane, 25 C
  log K of transfer, gas to solvent: 3.44 log10 K
[2]; 2-Methylpropan-2-ol, 25 C
  log K of transfer, gas to solvent: 3.39 log10 K
[2]; 3-Methylbutan-1-ol, 25 C
  log K of transfer, gas to solvent: 3.4 log10 K
[2]; Acetonitrile, 25 C
  log K of transfer, gas to solvent: 2.68 log10 K
[2]; Benzene, 25 C
  log K of transfer, gas to solvent: 3.92 log10 K
[2]; Butan-1-ol, 25 C
  log K of transfer, gas to solvent: 3.26 log10 K
[2]; Butanone, 25 C
  log K of transfer, gas to solvent: 3.45 log10 K
[2]; Butyronitrile, 25 C
  log K of transfer, gas to solvent: 3.21 log10 K
[2]; CCl4, 25 C
  log K of transfer, gas to solvent: 4.05 log10 K
[2]; Chlorobenzene, 25 C
  log K of transfer, gas to solvent: 3.99 log10 K
[2]; Chloroform, 25 C
  log K of transfer, gas to solvent: 3.9 log10 K
[2]; Cyclohexane, 25 C
  log K of transfer, gas to solvent: 4.07 log10 K
[2]; Cyclohexanone, 25 C
  log K of transfer, gas to solvent: 3.42 log10 K
[2]; Decan-1-ol, 25 C
  log K of transfer, gas to solvent: 3.32 log10 K
[2]; Di-n-butyl ether, 25 C
  log K of transfer, gas to solvent: 3.85 log10 K
[2]; Dichloromethane, 25 C
  log K of transfer, gas to solvent: 3.72 log10 K
[2]; Diethyl Ether, 25 C
  log K of transfer, gas to solvent: 3.92 log10 K
[2]; Ethanol, 25 C
  log K of transfer, gas to solvent: 3.17 log10 K
[2]; Hexadecane, 25 C
  log K of transfer, gas to solvent: 3.68 log10 K
[2]; Hexane, 25 C
  log K of transfer, gas to solvent: 3.97 log10 K
[2]; Methanol, 25 C
  log K of transfer, gas to solvent: 2.82 log10 K
[2]; Octan-1-ol, 25 C
  log K of transfer, gas to solvent: 3.3 log10 K
[2]; Pentan-1-ol, 25 C
  log K of transfer, gas to solvent: 3.39 log10 K
[2]; Perfluoroalkane, 25 C
  log K of transfer, gas to solvent: 2.54 log10 K
[2]; Propan-1-ol, 25 C
  log K of transfer, gas to solvent: 3.17 log10 K
[2]; Propan-2-ol, 25 C
  log K of transfer, gas to solvent: 3.17 log10 K
[2]; Propanone, 25 C
  log K of transfer, gas to solvent: 3.23 log10 K
[2]; Propionitrile, 25 C
  log K of transfer, gas to solvent: 3.05 log10 K
[2]; Tetrahydrofuran, 25 C
  log K of transfer, gas to solvent: 3.85 log10 K
[2]; Toluene, 25 C
  log K of transfer, gas to solvent: 3.94 log10 K
[2]; Water, 25 C
  log K of transfer, gas to solvent: -2.11 log10 K
[3]; 1,2-Dichloroethane, 25 C
  log K of transfer, water to solvent: 5.55 log10 K
[3]; 2-Methylpropan-2-ol, 25 C
  log K of transfer, water to solvent: 5.5 log10 K
[3]; 3-Methylbutan-1-ol, 25 C
  log K of transfer, water to solvent: 5.51 log10 K
[3]; Acetone, 25 C
  log K of transfer, water to solvent: 5.34 log10 K
[3]; Acetonitrile, 25 C
  log K of transfer, water to solvent: 4.79 log10 K
[3]; Benzene, 25 C
  log K of transfer, water to solvent: 6.03 log10 K
[3]; Butan-1-ol, 25 C
  log K of transfer, water to solvent: 5.37 log10 K
[3]; Butanone, 25 C
  log K of transfer, water to solvent: 5.56 log10 K
[3]; Butyronitrile, 25 C
  log K of transfer, water to solvent: 5.32 log10 K
[3]; CCl4, 25 C
  log K of transfer, water to solvent: 6.16 log10 K
[3]; Chlorobenzene, 25 C
  log K of transfer, water to solvent: 6.1 log10 K
[3]; Chloroform, 25 C
  log K of transfer, water to solvent: 6.01 log10 K
[3]; Cyclohexane, 25 C
  log K of transfer, water to solvent: 6.18 log10 K
[3]; Cyclohexanone, 25 C
  log K of transfer, water to solvent: 5.53 log10 K
[3]; Decan-1-ol, 25 C
  log K of transfer, water to solvent: 5.43 log10 K
[3]; Di-n-butyl ether, 25 C
  log K of transfer, water to solvent: 5.96 log10 K
[3]; Dichloromethane, 25 C
  log K of transfer, water to solvent: 5.83 log10 K
[3]; Diethyl Ether, 25 C
  log K of transfer, water to solvent: 6.03 log10 K
[3]; Ethanol, 25 C
  log K of transfer, water to solvent: 5.28 log10 K
[3]; Hexadecane, 25 C
  log K of transfer, water to solvent: 5.78 log10 K
[3]; Hexane, 25 C
  log K of transfer, water to solvent: 6.08 log10 K
[3]; Methanol, 25 C
  log K of transfer, water to solvent: 4.93 log10 K
[3]; Octan-1-ol(dry), 25 C
  log K of transfer, water to solvent: 5.41 log10 K
[3]; Pentan-1-ol, 25 C
  log K of transfer, water to solvent: 5.5 log10 K
[3]; Perfluoroalkane, 25 C
  log K of transfer, water to solvent: 4.65 log10 K
[3]; Propan-1-ol, 25 C
  log K of transfer, water to solvent: 5.28 log10 K
[3]; Propan-2-ol, 25 C
  log K of transfer, water to solvent: 5.28 log10 K
[3]; Propionitrile, 25 C
  log K of transfer, water to solvent: 5.16 log10 K
[3]; Tetrahydrofuran, 25 C
  log K of transfer, water to solvent: 5.96 log10 K
[3]; Toluene, 25 C
  log K of transfer, water to solvent: 6.05 log10 K

## C=CCCCCCC
[1]
  log K of transfer, water to solvent: 4.57 log10 K
[2]; Butyronitrile, 25 C
  log K of transfer, gas to solvent: 3.31 log10 K
[2]; Hexadecane, 25 C
  log K of transfer, gas to solvent: 3.57 log10 K
[2]; Octan-1-ol, 25 C
  log K of transfer, gas to solvent: 3.35 log10 K
[2]; Propionitrile, 25 C
  log K of transfer, gas to solvent: 3.32 log10 K
[2]; Water, 25 C
  log K of transfer, gas to solvent: -1.41 log10 K
[3]; Butyronitrile, 25 C
  log K of transfer, water to solvent: 4.72 log10 K
[3]; Hexadecane, 25 C
  log K of transfer, water to solvent: 4.98 log10 K
[3]; Octan-1-ol(dry), 25 C
  log K of transfer, water to solvent: 4.76 log10 K
[3]; Propionitrile, 25 C
  log K of transfer, water to solvent: 4.73 log10 K

## Cc1cccc(C)c1
[1]
  log K of transfer, water to solvent: 3.2 log10 K
[2]; 1,2-Dichloroethane, 25 C
  log K of transfer, gas to solvent: 4.38 log10 K
[2]; CCl4, 25 C
  log K of transfer, gas to solvent: 4.18 log10 K
[2]; Chloroform, 25 C
  log K of transfer, gas to solvent: 4.29 log10 K
[2]; Cyclohexane, 25 C
  log K of transfer, gas to solvent: 3.95 log10 K
[2]; Hexadecane, 25 C
  log K of transfer, gas to solvent: 3.84 log10 K
[2]; Octan-1-ol, 25 C
  log K of transfer, gas to solvent: 3.79 log10 K
[2]; Water, 25 C
  log K of transfer, gas to solvent: 0.61 log10 K
[3]; 1,2-Dichloroethane, 25 C
  log K of transfer, water to solvent: 3.77 log10 K
[3]; CCl4, 25 C
  log K of transfer, water to solvent: 3.57 log10 K
[3]; Chloroform, 25 C
  log K of transfer, water to solvent: 3.68 log10 K
[3]; Cyclohexane, 25 C
  log K of transfer, water to solvent: 3.34 log10 K
[3]; Hexadecane, 25 C
  log K of transfer, water to solvent: 3.23 log10 K
[3]; Octan-1-ol(dry), 25 C
  log K of transfer, water to solvent: 3.18 log10 K

## CCCCCCCCCCO
[1]
  log K of transfer, water to solvent: 4.12 log10 K
[2]; Decan-1-ol, 25 C
  log K of transfer, gas to solvent: 7.03 log10 K
[2]; Hexadecane, 25 C
  log K of transfer, gas to solvent: 5.61 log10 K
[2]; Hexane, 25 C
  log K of transfer, gas to solvent: 5.64 log10 K
[2]; Propan-1-ol, 25 C
  log K of transfer, gas to solvent: 7.13 log10 K
[2]; Propan-2-ol, 25 C
  log K of transfer, gas to solvent: 7.16 log10 K
[2]; Water, 25 C
  log K of transfer, gas to solvent: 2.67 log10 K
[3]; Decan-1-ol, 25 C
  log K of transfer, water to solvent: 4.36 log10 K
[3]; Hexadecane, 25 C
  log K of transfer, water to solvent: 2.94 log10 K
[3]; Hexane, 25 C
  log K of transfer, water to solvent: 2.97 log10 K
[3]; Propan-1-ol, 25 C
  log K of transfer, water to solvent: 4.46 log10 K
[3]; Propan-2-ol, 25 C
  log K of transfer, water to solvent: 4.49 log10 K
